pIC50: −log10 of the molar value. Calls of active or inactive are those of the source. The calls are words filed in the database; no cut-off is given here.
Assays:
[1] = tested on: A549; test: Antiproliferative activity against human A549 cells by MTT assay; format: functional, cell-based
[2] = tested on: HepG2; test: Antiproliferative activity against human HepG2 cells by MTT assay; format: functional, cell-based
[3] = Antiproliferative activity against human MGC803 cells by MTT assay; format: functional, cell-based; conditions: MGC-803
[4] = tested on: A549; test: Induction of apoptosis in human A549 cells assessed as early apoptotic cells at 10 uM after 6 hrs by Annexin-V-FITC/Propidium iodide staining based flow cytometric analysis (reference value: 3.83 +/- 0.49%); format: functional
[5] = tested on: A549; test: Induction of apoptosis in human A549 cells assessed as late apoptotic cells at 10 uM after 6 hrs by Annexin-V-FITC/Propidium iodide staining based flow cytometric analysis (reference value: 0.41 +/- 0.19%); format: functional
[6] = tested on: A549; test: Induction of apoptosis in human A549 cells assessed as necrotic cells at 10 uM after 48 hrs by Annexin-V/Propidium iodide dual staining based flow cytometric analysis (reference value: 2.57 +/- 0.39%); format: functional
[7] = tested on: A549; test: Induction of apoptosis in human A549 cells assessed as upregulation of caspase-8 expression at 10 uM after 48 hrs by Western blot analysis; format: functional, cell-based
[8] = tested on: A549; test: Cell cycle arrest in human A549 cells assessed as accumulation at S phase at 10 uM by propidium iodide staining based flow cytometric analysis (reference value: 23.41 +/- 2.19%); format: functional
[9] = tested on: A549; test: Induction of apoptosis in human A549 cells assessed as increase in ROS production at 10 uM after 12 hrs by DCF staining based luminescence spectrometric analysis; format: functional, cell-based
[10] = tested on: A549; test: Induction of apoptosis in human A549 cells assessed as upregulation of caspase-3 expression at 10 uM after 48 hrs by Western blot analysis; format: functional, cell-based
[11] = tested on: A549; test: Induction of apoptosis in human A549 cells assessed as necrotic cells at 10 uM after 6 hrs by Annexin-V-FITC/Propidium iodide staining based flow cytometric analysis (reference value: 0.28 +/- 0.09%); format: functional
[12] = tested on: A549; test: Cell cycle arrest in human A549 cells assessed as accumulation at G2/M phase at 10 uM by propidium iodide staining based flow cytometric analysis (reference value: 12.77 +/- 1.55%); format: functional
[13] = tested on: A549; test: Induction of apoptosis in human A549 cells assessed as early apoptotic cells at 10 uM after 48 hrs by Annexin-V/Propidium iodide dual staining based flow cytometric analysis (reference value: 3.53 +/- 0.89%); format: functional
[14] = tested on: A549; test: Induction of apoptosis in human A549 cells assessed as late apoptotic cells at 10 uM after 48 hrs by Annexin-V/Propidium iodide dual staining based flow cytometric analysis (reference value: 1.44 +/- 0.43%); format: functional
[15] = tested on: A549; test: Induction of apoptosis in human A549 cells assessed as viable cells at 10 uM after 6 hrs by Annexin-V-FITC/Propidium iodide staining based flow cytometric analysis (reference value: 95.48 +/- 2.03%); format: functional; conditions: A549, 6 h, read-out: Activity
[16] = tested on: A549; test: Induction of apoptosis in human A549 cells assessed as viable cells at 10 uM after 48 hrs by Annexin-V-FITC/Propidium iodide staining based flow cytometric analysis (reference value: 92.46 +/- 4.23%); format: functional; conditions: A549, 48 h, read-out: Activity
[17] = tested on: A549; test: Cell cycle arrest in human A549 cells assessed as accumulation at G0/G1 phase at 10 uM by propidium iodide staining based flow cytometric analysis (reference value: 63.82 +/- 2.66%); format: functional
[18] = tested on: A549; test: Induction of apoptosis in human A549 cells assessed as upregulation of Bax expression at 10 uM after 48 hrs by Western blot analysis; format: functional, cell-based
[19] = target: RAF proto-oncogene serine/threonine-protein kinase (Homo sapiens) (UniProt P04049); conditions: A549, 10 uM
RAF proto-oncogene serine/threonine-protein kinase (Homo sapiens), sequence (P04049 whole entry): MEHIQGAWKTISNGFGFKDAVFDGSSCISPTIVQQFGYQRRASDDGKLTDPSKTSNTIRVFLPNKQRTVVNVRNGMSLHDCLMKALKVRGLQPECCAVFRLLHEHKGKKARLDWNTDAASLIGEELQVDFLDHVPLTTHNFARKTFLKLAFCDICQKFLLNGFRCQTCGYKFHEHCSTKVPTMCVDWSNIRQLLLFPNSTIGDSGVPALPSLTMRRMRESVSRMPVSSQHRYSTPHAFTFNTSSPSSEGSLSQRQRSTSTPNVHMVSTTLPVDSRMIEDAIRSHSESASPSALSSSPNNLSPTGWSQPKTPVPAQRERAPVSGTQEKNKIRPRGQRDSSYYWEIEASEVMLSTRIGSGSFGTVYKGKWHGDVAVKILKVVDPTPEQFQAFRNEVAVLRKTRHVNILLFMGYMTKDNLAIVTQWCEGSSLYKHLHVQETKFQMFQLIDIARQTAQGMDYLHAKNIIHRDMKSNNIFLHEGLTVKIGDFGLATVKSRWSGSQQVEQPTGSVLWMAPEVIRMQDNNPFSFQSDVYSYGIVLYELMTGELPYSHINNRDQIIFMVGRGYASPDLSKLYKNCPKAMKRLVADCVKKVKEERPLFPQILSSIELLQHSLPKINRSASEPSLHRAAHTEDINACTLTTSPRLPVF
Description: Inhibition of C-Raf in human A549 cells at 10 uM after 48 hrs by Western blot analysis

[20] = tested on: A549; test: Induction of apoptosis in human A549 cells assessed as downregulation of Bcl-2 expression at 10 uM after 48 hrs by Western blot analysis; format: functional, cell-based

Row | Compound | pIC50 [1] | pIC50 [2] | pIC50 [3] | also measured
1 | COc1ccccc1NC(=O)Nc1cccc(CNc2ncnc3ccccc23)c1 | 4.51 | 4.76 | 4.41 | –
2 | Cc1ccccc1NC(=O)Nc1cccc(CNc2ncnc3ccccc23)c1 | 4.40 | < 4.30 | < 4.30 | –
3 | O=C(Nc1cccc(Cl)c1)Nc1cccc(CNc2ncnc3ccccc23)c1 | < 4.30 | < 4.30 | 4.72 | –
4 | CC(C)(C)c1ccc(NC(=O)Nc2cccc(CNc3ncnc4ccccc34)c2)cc1 | 4.75 | 4.77 | 5.13 | –
5 | O=C(Nc1ccc(F)cc1)Nc1cccc(CNc2ncnc3ccccc23)c1 | 4.68 | 4.38 | 4.35 | –
6 | O=C(Nc1ccc(Cl)cc1)Nc1cccc(CNc2ncnc3ccccc23)c1 | < 4.30 | < 4.30 | 4.58 | –
7 | O=C(Nc1ccccc1)Nc1cccc(CNc2ncnc3ccccc23)c1 | 4.74 | < 4.30 | 4.88 | –
8 | O=C(Nc1cccc(CNc2ncnc3ccccc23)c1)Nc1cccc(C(F)(F)F)c1 | 4.35 | 4.40 | < 4.30 | –
9 | O=C(Nc1cccc(CNc2ncnc3ccccc23)c1)Nc1ccccc1F | 4.58 | 4.76 | 4.48 | –
10 | COc1cc2ncnc(Nc3ccc(F)c(Cl)c3)c2cc1OCCCN1CCOCC1 [GEFITINIB] | – | – | – | Activity [4]: 5.81%; Activity [5]: 5.27%; Activity [6]: 11%; Activity [7]: Active; Activity [8]: 3.61%; Activity [9]: Active; Activity [10]: Active; Activity [11]: 0.94%; Activity [12]: 4.04%; Activity [13]: 1%; Activity [14]: 4.92%; viability at 10 µM [15]: 88%; viability at 10 µM [16]: 83.1%; Activity [17]: 92.35%
11 | COC(=O)c1ccccc1NC(=O)Nc1cccc(CNc2ncnc3ccccc23)c1 | 4.53 | < 4.30 | 5.02 | –
12 | Cc1cccc(NC(=O)Nc2cccc(CNc3ncnc4ccccc34)c2)c1 | 4.52 | < 4.30 | 4.52 | –
13 | O=C(Nc1cccc(CNc2ncnc3ccccc23)c1)Nc1ccccc1Cl | 4.75 | < 4.30 | < 4.30 | –
14 | CNC(=O)c1cc(Oc2ccc(NC(=O)Nc3ccc(Cl)c(C(F)(F)F)c3)cc2)ccn1 [SORAFENIB] | 4.87 | 5.04 | 5.10 | Activity [18]: Active; Activity [4]: 9.33%; Activity [5]: 6.23%; Activity [6]: 19.9%; Activity [7]: Active; Activity [8]: 5.79%; Activity [9]: Active; Activity [10]: Active; Activity [11]: 0.7%; Activity [12]: 3.93%; Activity [13]: 0.9%; inhibition [19]: Active; Activity [20]: Active; Activity [14]: 6.38%; viability at 10 µM [15]: 83.7%; viability at 10 µM [16]: 72.8%; Activity [17]: 90.27%

The next lines start with results.

Row | pIC50 [1] | pIC50 [2] | Compound | pIC50 [3] | also measured
15 | 4.82 | 4.59 | COc1cc2ncnc(NCc3cccc(NC(=O)Nc4ccccc4Cl)c3)c2cc1OC | 4.52 | –
16 | 4.64 | 4.45 | COc1cc2ncnc(NCc3cccc(NC(=O)Nc4cccc(Cl)c4)c3)c2cc1OC | < 4.30 | –
17 | 4.67 | < 4.30 | COc1cc2ncnc(NCc3cccc(NC(=O)Nc4ccccc4C)c3)c2cc1OC | < 4.30 | –
18 | 4.82 | 4.57 | COc1ccccc1NC(=O)Nc1cccc(CNc2ncnc3cc(OC)c(OC)cc23)c1 | 5.11 | –
19 | 4.53 | 4.50 | COC(=O)c1ccccc1NC(=O)Nc1cccc(CNc2ncnc3cc(OC)c(OC)cc23)c1 | 5.05 | –
20 | 4.61 | < 4.30 | COc1ccc(NC(=O)Nc2cccc(CNc3ncnc4cc(OC)c(OC)cc34)c2)cc1 | 4.91 | –
21 | 4.77 | 4.71 | COc1cc2ncnc(NCc3cccc(NC(=O)Nc4ccccc4)c3)c2cc1OC | 5.00 | –
22 | 4.60 | < 4.30 | Cc1ccc(NC(=O)Nc2cccc(CNc3ncnc4ccccc34)c2)cc1 | 4.51 | –
23 | 4.89 | < 4.30 | COc1cc2ncnc(NCc3cccc(NC(=O)Nc4ccc(C)cc4)c3)c2cc1OC | 4.47 | –
24 | 4.57 | 4.67 | COc1cc2ncnc(NCc3cccc(NC(=O)Nc4cccc(C)c4)c3)c2cc1OC | 4.35 | –
25 | 4.77 | 4.44 | COc1cc2ncnc(NCc3cccc(NC(=O)Nc4ccc(F)cc4)c3)c2cc1OC | 4.38 | –
26 | 4.62 | 4.60 | COc1cc2ncnc(NCc3cccc(NC(=O)Nc4ccccc4F)c3)c2cc1OC | 4.99 | –
27 | 4.45 | 4.47 | COc1cc2ncnc(NCc3cccc(NC(=O)Nc4cccc(C(F)(F)F)c4)c3)c2cc1OC | < 4.30 | –
28 | 4.53 | < 4.30 | COc1ccc(NC(=O)Nc2cccc(CNc3ncnc4ccccc34)c2)cc1 | 4.56 | –
29 | < 4.30 | 4.61 | O=C(Nc1ccc([N+](=O)[O-])cc1)Nc1cccc(CNc2ncnc3ccccc23)c1 | 5.03 | –
30 | < 4.30 | 4.72 | COc1cc2ncnc(NCc3cccc(NC(=O)Nc4ccc([N+](=O)[O-])cc4)c3)c2cc1OC | 5.09 | –
31 | 4.52 | < 4.30 | COc1cc2ncnc(NCc3cccc(NC(=O)Nc4ccc(Cl)cc4)c3)c2cc1OC | 4.35 | –
